Test results as given in patent US20030108893A1, “Method for establishing neurogically relevant properties of a material” (priority 1999, published 2003).

Columns and labels:
threadworm (C. elegans) [1] = assay: Neurotoxic substance administered to nematodes in liquid medium; behavior or morphology phenotype observed; assay type: in vivo, Caenorhabditis elegans; conditions: for behavioral anomalies or changes in morphology after administration of neurotoxic compound: nematodes (threadworms), general finding
Excerpt: The response to the administration of neurotoxic substances which act on the central nervous system was investigated in nematodes of the genus Caenorhabditis and, in particular, in Caenorhabditis elegans. In this threadworm, a characteristic phenotype, which is expressed, for example, in movement disturbances, a reduced number of progeny or morphological changes,; is observed both in the larval stages L1, L2, L3 and L4 (see “The Nematode Caenorhabditis elegans”; Wood et al., Cold Spring Harbor Laboratory, 1988) and in the adult stage following incubation with a neurotoxic substance. This can be ascertained by observing the phenotype microscopically, by determining the number of progeny per animal and time period or by detecting nerve cells which have been labeled with particular dyes (e.g. GFP fusion proteins) and whose color changes after they have been acted upon by a neurotoxic substance.
(§1) Per assay, about 100 threadworm (C. elegans) test animals at a defined stage of development (e.g. L1 larval stage) were incubated in liquid medium at constant temperature (e.g. 20° C.). […]
This can be expressed in severe movement disturbances, a reduced number of progeny or morphological changes.

threadworm (C. elegans) [2] = assay: Preincubation with test material before MPTP; reversion or prevention of the MPTP phenotype; assay type: in vivo, Caenorhabditis elegans; conditions: 100 C. elegans; three days of preincubation with L-DOPA, MPTP added on the third day; observed on day 6 (Figure B)
Excerpt: It is possible to expose the nematodes to the materials to be investigated in a wide variety of ways. For example, it is possible to culture the animals in Petri dishes containing an agar which contains neurotoxic substances, on the one hand, and the substances of interest on the other. However, it is also possible to bathe the animals, in a simple manner, in the materials to be investigated. As well as being particularly simple, this variant also makes it possible to standardize the concentrations more easily and to achieve a higher throughput in a screening system. For an investigation, use is made of populations of the animals, which populations are then incubated with different solutions of the materials and at different concentrations. […] The observation, namely the reversion or prevention of the behavioral anomaly or the morphological change following neurotoxin treatment, makes it possible to draw a conclusion with regard to the possible activity and site of action of the material whose suitability as a drug is under investigation.
as §1

SMILES | behavioral anomalies or changes in morphology after administration of neurotoxic compound (threadworm (C. elegans) [1]) | expression of the phenotype brought about by MPTP after incubation with test material (threadworm (C. elegans) [2]) | characteristic phenotype (severe movement disturbances, reduced number of progeny or morphological changes) (threadworm (C. elegans) [1]; about 100 C. elegans, e.g. L1 larval stage, liquid medium, e.g. 20° C., MPTP 16 to 500 μg/ml, observed e.g. on day 6 (Figure A))
NCCc1cc(O)c(O)cc1O [6-OHDA, 6-hydroxy-dopamine] | exhibit behavioral anomalies or changes in their morphology | – | –
N[C@@H](Cc1ccc(O)c(O)c1)C(=O)O [L-DOPA, L-3,4-dihydroxyphenylalanine] | – | the phenotype which is brought about by MPTP is not expressed | –
CN1CC=C(c2ccccc2)CC1 [MPTP, 1-methyl-4-phenyl-1,2,3,6-tetrahydropyridine] | exhibit behavioral anomalies or changes in their morphology | – | a characteristic phenotype was observed
